Reference: US11324787B2, “Analytical methods and arrays for use in the same” (SENZAGEN AB, priority 2017, dated 2022)
Structures can show the parent of a compound that is named as a salt. Where two headings read alike, the source gives them in different places.

Assays:
[1] = tested on: myeloid cell line derived from MUTZ-3; test: GARD binary classification (SVM on GARD prediction signature, 200 transcripts)
[2] = tested on: myeloid cell line derived from MUTZ-3; test: Cytotoxicity / viability by flow cytometry (propidium iodide), 24 hours exposure; conditions: yes/no; MUTZ-3 derived cells
[3] = cited from earlier work; for binary class: sens / non-sens; for true CLP: test set
[4] = cited from earlier work; for HP: human potency; for binary class (HP*): based on human potency [41] where available, otherwise according to CLP; for Human potency [41]: test set; for Human potency: class 1 representing highest potency, 6 representing non-sensitizers
[5] = tested on: myeloid cell line derived from MUTZ-3; test: GARD random forest model predicting CLP categories (52 transcripts, Example A); conditions: test set; for GARD predicted CLP: majority voting across replicates; for predicted CLP: separate replicates
[6] = Table 8 chemical list, GARD SVM decision value
[7] = chemicals of random forest training and test set
[8] = Table 9, chemicals training set
[9] = CLP annotation of 37 novel chemicals

Molecule	SVM DV [1, 6]	CLP [3, 7]	binary class [3, 7]	HP [4, 7]	CLP [3, 8]	also measured
O=Cc1ccccc1 [benzaldehyde]	−2.13					
Clc1ccccc1 [chlorobenzene]	−1.63					
O=C(O)CC(O)(CC(=O)O)C(=O)O [citric acid]						cytotox [2]: no
C[S+](C)[O-] [dimethyl sulfoxide]		no cat	non-sens	6		
O=[N+]([O-])c1ccc(Cl)c([N+](=O)[O-])c1 [2,4-dinitrochlorobenzene]		1A	sens	1	1A	CLP ([3]; 11 benchmark chemicals): 1A; binary class ([3]; 11 benchmark chemicals): sens; HP ([4]; 11 benchmark chemicals): 1
CCCCCCCCCCCCOS(=O)(=O)[O-].[Na+] [Sodium lauryl sulfate]	−1.52					
C=CC(=O)OCCO [2-hydroxyethyl acrylate]	8.87					
Oc1ccc(O)cc1 [hydroquinone]		1A	sens	3	1A	
CC=Cc1ccc(OC)cc1 [anethole]				5		binary class (HP*) [4]: NS (5-6 = NS); Human potency [41] [4]: 5; GARD predicted CLP [5]: 1B; predicted CLP [5]: 1B
[K+].[K+].[O]=[Cr](=[O])([O-])[O][Cr](=[O])(=[O])[O-] [potassium dichromate]		1A	sens		1A	
O=C(O)c1ccc(O)cc1 [p-hydroxybenzoic acid]		no cat	non-sens		no cat	
O=[N+]([O-])c1ccc(F)c([N+](=O)[O-])c1 [2,4-dinitrofluorobenzene, 2,4-Dinitrofluorobenzene]		1A	sens		1A	CLP [3, 9]: 1A; binary class (HP*) [4]: S (HP 1-4 = S); GARD binary prediction ([1]; SVM, median calibrated decision value of replicates >0 = sensitizer): S
dextran		no cat	non-sens	6	no cat	binary class (HP*) [4]: NS (5-6 = NS); cytotox [2]: no
CCCCCC [hexane]		no cat	non-sens	6	no cat	
O=C(Oc1ccccc1)c1ccccc1 [phenyl benzoate]		1B	sens	3	1B	
CC(C)=CCC/C(C)=C/CO [geraniol]	1.76					
O=C(O)c1ccccc1 [benzoic acid]		no cat	non-sens			CLP ([3]; Table 10, chemicals test set 1): no cat; true CLP ([3]; per replicate line): no cat; true CLP [3]: no cat; binary class (HP*) [4]: NS (5-6 = NS); GARD predicted CLP [5]: no cat; predicted CLP [5]: no cat
CC(O)CO (stereo not shown) [Propylene glycol]	−1.18					Human potency [4]: 5
xylene				6		Human potency [41] [4]: 6

Molecule	SVM DV [1, 6]	CLP [3, 7]	binary class [3, 7]	HP [4, 7]	CLP [3, 8]	also measured
Oc1ccccc1 [phenol]						SVM DV [1]: −1.08
C=O [formaldehyde]						SVM DV [1]: 2.32
OCC(O)CO [glycerol]	−2.05			6		Human potency [4]: 6
CC1(C)S[C@@H]2[C@H](NC(=O)Cc3ccccc3)C(=O)N2[C@H]1C(=O)O [Penicillin G]	1.06					Human potency [4]: 3
CCCCCCC(C=O)=Cc1ccccc1 [hexylcinnamic aldehyde]	1.24	1B	sens	5	1B	CLP ([3]; 11 benchmark chemicals): 1B; binary class ([3]; 11 benchmark chemicals): sens; HP ([4]; 11 benchmark chemicals): 5; Human potency [4]: 5
Oc1cccc(O)c1 [resorcinol]	1.03			4		HP ([4]; 11 benchmark chemicals): 4; Human potency [4]: 4
CC=Cc1ccc(O)c(OC)c1 [isoeugenol]		1A	sens	2	1A	
CCCCCCCCCCCCOC(=O)c1cc(O)c(O)c(O)c1 [lauryl gallate]		1A	sens	2	1A	
CCCOC(=O)c1cc(O)c(O)c(O)c1 [propyl gal late]						CLP ([3]; Table 10, chemicals test set 1): 1A
OCc1ccccc1 [benzyl alcohol]		no cat	non-sens		no cat	binary class (HP*) [4]: NS (5-6 = NS); cytotox [2]: no
O=c1c(-c2ccccc2)c1-c1ccccc1 [diphenylcyclopropenone]		1A	sens	1	1A	
Nc1ccc(N)cc1 [p-phenylenediamine]		1A	sens		1A	CLP ([3]; 11 benchmark chemicals): 1A; binary class ([3]; 11 benchmark chemicals): sens
O=CC=O [glyoxal]	1.08					
COC(=O)c1ccccc1O [methyl salicylate]	−1.53	no cat	non-sens	5	no cat	Human potency [4]: 5
N#CCCC(Br)(C#N)CBr (stereo not shown) [methyldibromo glutaronitrile]		1A	sens	2	1A	
NC[C@H]1O[C@H](O[C@H]2[C@H](O)[C@@H](O[C@H]3O[C@H](CO)[C@@H](O)[C@H](N)[C@H]3O)[C@H](N)C[C@@H]2N)[C@H](O)[C@@H](O)[C@@H]1O [kanamycin A]		no cat	non-sens		no cat	binary class (HP*) [4]: NS (5-6 = NS)
C=CCc1ccc(O)c(OC)c1 [eugenol]	1.02					
chloroanilin		1B	sens		1B	
CC(O)C(=O)O (stereo not shown) [lactic acid]	−2.38			6		

Molecule	SVM DV [1, 6]	CLP [3, 7]	binary class [3, 7]	HP [4, 7]	CLP [3, 8]	also measured
OCC=Cc1ccccc1 [cinnamyl alcohol]		1B	sens	3	1B	
CC(C)O [isopropanol]	−1.37	no cat	non-sens	5	no cat	Human potency [4]: 5
Sc1nc2ccccc2s1 [2-mercaptobenzothiazole]	2.52	1A	sens	3	1A	Human potency [4]: 3
Nc1ccc(N)cc1 [PPD]	5.32					Human potency [4]: 1
OC/C=C/c1ccccc1 [Cinnamic alcohol]	2.94					Human potency [4]: 3
O=C(O)C(O)C(O)C(=O)O (stereo not shown) [tartaric acid]						cytotox [2]: no
Nc1ccc(C(=O)O)cc1 [PABA]	−1.04					Human potency [4]: 5
CCOC(=O)/C=C\C(=O)OCC [diethyl maleate]		1B	sens	2		CLP ([3]; Table 10, chemicals test set 1): 1B; true CLP ([3]; per replicate line): 1B; true CLP [3]: 1B; Human potency [41] [4]: 2; GARD predicted CLP [5]: 1A; predicted CLP [5]: 1A
CCCCBr [1-brombutane, 1-bromobutane]		no cat	non-sens			CLP ([3]; Table 10, chemicals test set 1): no cat; true CLP ([3]; per replicate line): no cat; true CLP [3]: no cat; binary class (HP*) [4]: NS (5-6 = NS); GARD predicted CLP [5]: no cat; predicted CLP [5]: no cat
CCCCCCCC(=O)O [octanoic acid]	−1.19	no cat	non-sens	6	no cat	Human potency [4]: 6
Nc1ccccc1O [2-aminophenol]	5.98			2		HP ([4]; 11 benchmark chemicals): 2; Human potency [4]: 2
CCOC(=O)c1ccccc1C(=O)OCC [diethyl phthalate]	−2.15	no cat	non-sens	6		CLP ([3]; Table 10, chemicals test set 1): no cat; true CLP ([3]; per replicate line): no cat; true CLP [3]: no cat; GARD predicted CLP [5]: no cat; predicted CLP [5]: no cat
CC(C=O)Cc1ccc(C(C)(C)C)cc1 (stereo not shown) [lilial]		1B	sens		1B	CLP [3, 9]: 1B; binary class (HP*) [4]: S (HP 1-4 = S)
O=CCc1ccccc1 [phenylacetaldehyde]		1B	sens		1B	
NCCN [ethylenediamine]	1.12					
CC(CC=O)CCCC(C)(C)O (stereo not shown) [hydroxycitronellal]		1B	sens	4	1B	
CCCCCCCC/C=C\CCCCCCCC(=O)OCCOCC(OCCO)C1OCC(OCCO)C1OCCO (stereo not shown) [Tween 80]	−1.39	no cat	non-sens	6	no cat	Human potency [4]: 6
O=[N+]([O-])c1ccc(CBr)cc1 [4-nitrobenzylbromide]		1A	sens		1A	
O=C(O)c1ccccc1O [salicylic acid]	−1.41			6		Human potency [4]: 6
